In ChEMBL document CHEMBL1146941, “Synthesis of pyrazinamide Mannich bases and its antitubercular properties” (2006):
≈ marks a conversion by molar mass, not a printed value.

These compounds were tested on Mycobacterium tuberculosis (assay: Antimycobacterial activity against multi drug resistant Mycobacterium tuberculosis).
Format: functional

Compound	MIC90 [µg/mL]
O=C(NCN1CCN(c2cc3c(cc2F)c(=O)c(C(=O)O)cn3C2CC2)CC1)c1cnccn1	0.78 (≈ 1.67 µM)
CCn1cc(C(=O)O)c(=O)c2cc(F)c(N3CCN(CNC(=O)c4cnccn4)CC3)c(F)c21	0.78 (≈ 1.65 µM)
COc1ccc(N2CCN(CNC(=O)c3cnccn3)CC2)cc1	> 25
O=C(NCN1CCN(c2ccc([N+](=O)[O-])cc2)CC1)c1cnccn1	6.25 (≈ 18.3 µM)
COc1cccc(N2CCN(CNC(=O)c3cnccn3)CC2)c1	> 25
CN1CCN(CNC(=O)c2cnccn2)CC1	> 25
O=C(NCN1CCN(c2ccc(Cl)cc2)CC1)c1cnccn1	12.5 (≈ 37.7 µM)
O=C(NCN1CCN(c2ccc(F)cc2)CC1)c1cnccn1	1.76 (≈ 5.58 µM)
NC(=O)c1cnccn1 [PYRAZINAMIDE]	> 25
O=C(NCN1CCN(c2ccccn2)CC1)c1cnccn1	> 25
O=C(NCN1CCN(Cc2ccccc2)CC1)c1cnccn1	> 25
O=C(NCN1CCN(c2ccccc2)CC1)c1cnccn1	> 25
O=C(NCN1CCN(c2ccc(C(F)(F)F)cc2)CC1)c1cnccn1	1.76 (≈ 4.82 µM)
O=C(NCN1CCN(c2ncccn2)CC1)c1cnccn1	> 25
CCn1cc(C(=O)O)c(=O)c2cc(F)c(N3CCN(CNC(=O)c4cnccn4)CC3)cc21	0.78 (≈ 1.72 µM)
COc1ccccc1N1CCN(CNC(=O)c2cnccn2)CC1	> 25
O=C(NCN1CCN(c2cccc(Cl)c2)CC1)c1cnccn1	6.25 (≈ 18.8 µM)
